Activity calls are given as the source filed them.
Key:
Streptokinase A = target: T1, Streptokinase A (Streptococcus pyogenes serotype M1, UniProt P10520); experiment: viability-normalized secreted streptokinase activity reduction – plasminogen activation absorbance, OD405, dose response (AID 1914); format: functional, Streptococcus pyogenes M1 GAS;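 further: secreted streptokinase activity via plasminogen activation per viability signal from cell pellet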
T1 sequence (P10520 whole entry): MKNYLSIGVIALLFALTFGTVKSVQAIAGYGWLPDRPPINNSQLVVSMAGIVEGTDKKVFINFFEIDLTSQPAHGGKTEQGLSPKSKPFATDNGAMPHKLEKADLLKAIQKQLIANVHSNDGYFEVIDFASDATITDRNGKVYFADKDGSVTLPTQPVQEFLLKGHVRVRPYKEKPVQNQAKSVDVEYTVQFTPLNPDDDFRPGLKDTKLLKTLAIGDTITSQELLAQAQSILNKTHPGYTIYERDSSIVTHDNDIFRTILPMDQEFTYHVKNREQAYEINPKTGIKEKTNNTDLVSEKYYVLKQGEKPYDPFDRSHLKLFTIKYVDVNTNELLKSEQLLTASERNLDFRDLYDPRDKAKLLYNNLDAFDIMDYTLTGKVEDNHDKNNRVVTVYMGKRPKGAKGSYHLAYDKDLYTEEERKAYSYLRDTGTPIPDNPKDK

[1] = target: T2, Endoribonuclease toxin MazF (Escherichia coli K-12, UniProt P0AE70); experiment: substrate-only fluorescence increase artefacts – biochemical, single-stranded RNase substrate, counter-screen for MazEF activator project, dose response (AID 588502); format: functional
T2 sequence (P0AE70 whole entry): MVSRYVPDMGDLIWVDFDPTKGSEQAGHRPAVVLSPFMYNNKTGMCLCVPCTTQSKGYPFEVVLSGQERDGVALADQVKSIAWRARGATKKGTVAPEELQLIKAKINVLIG

Cysteine protease ATG4B = target: T3, Cysteine protease ATG4B (Homo sapiens, UniProt Q9Y4P1); format: functional;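 further: Fluorescence-based dose-response confirmation assay measuring inhibition of ATG4B activity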
T3 sequence (Q9Y4P1 whole entry): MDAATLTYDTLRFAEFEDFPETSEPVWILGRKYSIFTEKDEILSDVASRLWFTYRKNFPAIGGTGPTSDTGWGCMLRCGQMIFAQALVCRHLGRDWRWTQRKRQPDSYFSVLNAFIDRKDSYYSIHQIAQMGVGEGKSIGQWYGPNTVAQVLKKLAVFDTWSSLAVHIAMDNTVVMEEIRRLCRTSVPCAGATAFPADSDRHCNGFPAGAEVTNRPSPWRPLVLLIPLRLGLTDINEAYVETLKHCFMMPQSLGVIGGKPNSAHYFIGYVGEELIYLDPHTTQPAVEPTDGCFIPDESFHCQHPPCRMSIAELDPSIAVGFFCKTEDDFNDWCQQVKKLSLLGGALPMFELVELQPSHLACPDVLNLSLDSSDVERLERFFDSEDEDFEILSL

Streptococcus = experiment: GAS UMAA2166 growth inhibition – luminescence, BacTiterGlo, counter-screen for streptokinase expression inhibitor project, dose response (AID 1915); format: functional, organism-based;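 further: potency for reduction of bacterial viability or growth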
[2] = target: FAD-linked sulfhydryl oxidase ALR (Homo sapiens, UniProt P55789); experiment: ALR-catalysed DTT oxidation blockers – biochemical, H2O2 detection, luminescence, cherry-pick, dose response (AID 493248)
FAD-linked sulfhydryl oxidase ALR, sequence (P55789 whole entry): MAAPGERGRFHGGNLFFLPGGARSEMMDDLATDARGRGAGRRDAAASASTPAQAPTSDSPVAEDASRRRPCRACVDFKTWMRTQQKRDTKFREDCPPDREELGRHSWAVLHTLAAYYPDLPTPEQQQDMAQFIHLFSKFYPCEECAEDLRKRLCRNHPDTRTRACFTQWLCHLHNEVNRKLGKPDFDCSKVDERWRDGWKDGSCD

Salmon testes DNA = experiment: acridine orange-DNA binding displacement – biochemical, fluorescence polarization, cherry-picked samples, set 2, artefact control for KSHV LANA DNA-binding inhibitor project, dose response (AID 504727); design: species or system Salmonidae
[3] = system: Streptococcus sp. 'group A'; experiment: Streptococcus pyogenes SK(-)GAS viability under kanamycin – luminescence, BacTiterGlo, confirmation, counter-screen for streptokinase expression inhibitor project, dose response (AID 1900); format: functional, organism-based
Phospholipase A2 = Phospholipase A2 (Homo sapiens, UniProt P04054); format: functional;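 further: confirmatory dose-response counterscreen on phospholipase A2, testing hits that came from an ultra-high-throughput screen for ATG4B inhibitors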
Phospholipase A2, sequence (P04054 whole entry): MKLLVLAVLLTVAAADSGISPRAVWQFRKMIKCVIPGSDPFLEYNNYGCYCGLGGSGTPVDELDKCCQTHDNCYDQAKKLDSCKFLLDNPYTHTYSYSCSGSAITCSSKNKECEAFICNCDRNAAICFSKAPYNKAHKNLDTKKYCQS

[4] = target: T2, Endoribonuclease toxin MazF; experiment: activation of MazEF endoribonuclease cleavage – biochemical, fluorescence, single-stranded RNA substrate, uHTS hits, dose response (AID 588481); format: functional
ORF 73 = ORF 73 (Human herpesvirus 8, UniProt O40947); experiment: KSHV LANA DNA-binding disruption – biochemical, fluorescence polarization, cherry-picked samples, dose response (AID 504725); design: species or system Human gammaherpesvirus 8;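 further: fluorescence polarization of a labeled DNA duplex reporting LANA DNA binding; potency is for inhibitors that block LANA binding to the DNA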
ORF 73, sequence (O40947 whole entry, the tested form may be a part): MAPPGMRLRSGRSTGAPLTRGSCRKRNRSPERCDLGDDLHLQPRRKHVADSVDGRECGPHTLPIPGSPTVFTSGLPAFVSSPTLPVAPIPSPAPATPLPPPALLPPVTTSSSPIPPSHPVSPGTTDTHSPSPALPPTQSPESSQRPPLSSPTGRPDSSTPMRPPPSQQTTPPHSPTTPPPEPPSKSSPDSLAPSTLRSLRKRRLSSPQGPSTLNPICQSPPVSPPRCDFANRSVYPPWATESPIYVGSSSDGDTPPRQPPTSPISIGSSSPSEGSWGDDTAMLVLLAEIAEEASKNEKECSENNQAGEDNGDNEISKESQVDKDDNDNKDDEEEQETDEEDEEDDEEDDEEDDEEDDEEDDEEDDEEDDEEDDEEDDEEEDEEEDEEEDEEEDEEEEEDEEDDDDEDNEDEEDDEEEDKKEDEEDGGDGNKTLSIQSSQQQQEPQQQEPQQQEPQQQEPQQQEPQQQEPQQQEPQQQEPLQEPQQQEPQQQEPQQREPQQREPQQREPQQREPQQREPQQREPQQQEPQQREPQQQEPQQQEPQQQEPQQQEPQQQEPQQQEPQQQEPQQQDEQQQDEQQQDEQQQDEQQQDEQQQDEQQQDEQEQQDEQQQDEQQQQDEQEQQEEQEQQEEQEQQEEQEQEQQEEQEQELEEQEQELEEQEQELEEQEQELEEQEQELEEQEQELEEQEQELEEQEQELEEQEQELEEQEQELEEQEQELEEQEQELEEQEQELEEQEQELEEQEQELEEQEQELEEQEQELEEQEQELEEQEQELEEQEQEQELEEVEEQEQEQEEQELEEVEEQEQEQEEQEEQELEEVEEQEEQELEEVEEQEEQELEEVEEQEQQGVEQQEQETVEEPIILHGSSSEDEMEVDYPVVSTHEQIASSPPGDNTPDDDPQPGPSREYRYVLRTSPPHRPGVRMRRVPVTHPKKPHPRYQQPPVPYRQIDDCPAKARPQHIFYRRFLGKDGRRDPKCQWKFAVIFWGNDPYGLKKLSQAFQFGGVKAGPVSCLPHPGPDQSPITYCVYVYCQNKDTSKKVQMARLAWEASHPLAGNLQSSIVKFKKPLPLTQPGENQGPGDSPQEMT

Fibrinogen beta chain [5] = target: T4, Fibrinogen beta chain (Homo sapiens, UniProt P02675); experiment: Fluorescence polarization-based biochemical high throughput dose response assay to identify inhibitors that disrupt the binding of a cyclic peptide (Tn6) to the fibrin proteolytic product D-Dimer and fragment E complex [DD(E )].
T4 sequence (P02675 whole entry, the tested form may be a part): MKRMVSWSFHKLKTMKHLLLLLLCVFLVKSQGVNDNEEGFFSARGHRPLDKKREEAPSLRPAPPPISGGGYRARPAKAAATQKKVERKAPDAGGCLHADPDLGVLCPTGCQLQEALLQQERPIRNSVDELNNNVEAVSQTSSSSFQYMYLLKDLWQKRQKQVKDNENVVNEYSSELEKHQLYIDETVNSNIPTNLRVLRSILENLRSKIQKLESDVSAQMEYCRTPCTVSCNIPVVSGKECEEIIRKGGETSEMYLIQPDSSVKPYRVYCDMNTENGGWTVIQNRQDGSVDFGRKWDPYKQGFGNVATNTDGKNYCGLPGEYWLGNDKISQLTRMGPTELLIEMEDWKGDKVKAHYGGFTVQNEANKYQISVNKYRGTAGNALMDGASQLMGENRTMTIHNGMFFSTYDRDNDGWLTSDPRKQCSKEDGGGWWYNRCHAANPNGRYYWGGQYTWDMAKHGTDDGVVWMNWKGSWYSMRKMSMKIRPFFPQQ

Protein Rev = Protein Rev (Human immunodeficiency virus type 1 group M subtype B (isolate HXB2)(HIV-1), UniProt P04618); experiment: blockers of HIV Rev/RRE RNA complex – biochemical, fluorescence polarization, HIV-1, dose response (AID 434976); design: species or system Human immunodeficiency virus 1
Protein Rev, sequence (P04618 whole entry, the tested form may be a part): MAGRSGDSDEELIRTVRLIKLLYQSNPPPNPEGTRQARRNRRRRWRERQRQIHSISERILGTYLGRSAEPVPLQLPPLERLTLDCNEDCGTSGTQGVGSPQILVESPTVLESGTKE

Fibrinogen beta chain [6] = target: T4, Fibrinogen beta chain; experiment: Fluorescence polarization-based biochemical high throughput dose response assay to identify inhibitors that disrupt the binding of a cyclic peptide (Tn7) to the fibrin proteolytic product D-Dimer and fragment E complex [DD(E )].
[7] = target: Female germline-specific tumor suppressor gld-1 (Caenorhabditis elegans, UniProt Q17339); experiment: blockers of GLD-1/TGE RNA complex formation – biochemical, fluorescence polarization, C. elegans, dose response (AID 2802);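 further: fluorescence polarization of labeled TGE RNA bound by purified gld-1 protein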
Female germline-specific tumor suppressor gld-1, sequence (Q17339 whole entry): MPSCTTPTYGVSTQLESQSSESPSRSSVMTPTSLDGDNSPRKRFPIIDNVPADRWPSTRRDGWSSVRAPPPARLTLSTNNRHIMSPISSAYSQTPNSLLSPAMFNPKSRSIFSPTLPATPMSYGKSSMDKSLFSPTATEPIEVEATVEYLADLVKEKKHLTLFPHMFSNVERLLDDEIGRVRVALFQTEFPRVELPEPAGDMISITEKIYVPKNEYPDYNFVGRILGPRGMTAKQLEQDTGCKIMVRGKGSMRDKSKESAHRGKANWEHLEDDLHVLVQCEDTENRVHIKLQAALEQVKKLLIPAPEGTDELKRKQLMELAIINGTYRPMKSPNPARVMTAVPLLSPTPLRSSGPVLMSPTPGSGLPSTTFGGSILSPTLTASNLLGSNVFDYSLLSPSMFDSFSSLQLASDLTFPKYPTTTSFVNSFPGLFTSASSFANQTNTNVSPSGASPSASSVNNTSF

HeLa = experiment: viability loss in HeLa cells – cell-based, 24 h, cherry-picked samples, cytotoxicity control, dose response (AID 504726); format: functional; conditions: Homo sapiens;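 further: potency for cytotoxicity as loss of luminescence signal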
[8] = target: Melanin-concentrating hormone receptor 1 (Homo sapiens, UniProt Q99705); experiment: Late-stage fluorescence-based counterscreen for antagonists of the G-protein coupled receptor 7 (GPR7): cell-based dose response assay to identify antagonists of the melanin-concentrating hormone receptor 1 (MCHR1). [Related pubchem assays (depositor defined):AID1861, AID1880, AID1952, AID2148, AID2251, AID2257, AID485339]; format: functional;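 further: stimulated with 30 nM MCH peptide agonist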
Melanin-concentrating hormone receptor 1, sequence (Q99705 whole entry): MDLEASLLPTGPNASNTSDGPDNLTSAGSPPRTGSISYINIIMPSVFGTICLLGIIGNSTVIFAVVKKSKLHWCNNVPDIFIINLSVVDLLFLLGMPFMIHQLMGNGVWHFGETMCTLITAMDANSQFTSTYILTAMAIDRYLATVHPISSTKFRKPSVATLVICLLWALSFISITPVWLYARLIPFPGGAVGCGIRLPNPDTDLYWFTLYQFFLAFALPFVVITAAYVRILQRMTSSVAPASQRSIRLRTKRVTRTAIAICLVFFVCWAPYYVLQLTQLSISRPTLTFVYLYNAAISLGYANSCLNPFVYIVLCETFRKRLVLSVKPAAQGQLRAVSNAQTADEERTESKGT

O=C(O)C(c1ccccc1)N1C(=O)/C(=C\c2ccc(-c3cccc(Cl)c3)o2)SC1=S (stereo unspecified)
EC50 (Streptokinase A): 1.37 µM (active)
EC50 [1]: 97.1 µM (inactive)
IC50 (Cysteine protease ATG4B): 4.41 µM (active)
EC50 (Streptococcus): 2.23 µM (active)
AC50 [2]: 3.54 µM (active)
AC50 (Salmon testes DNA): 40.7 µM (active)
EC50 [3]: 2.37 µM (active)
IC50 (Phospholipase A2): 11.2 µM (active)
EC50 [4]: 50.3 µM (inactive)

O=C(Cn1nc(Cc2ccncc2)c2ccccc2c1=O)N1CCN(C(=O)c2ccco2)CC1
AC50 (ORF 73): 11.4 µM (active)

COC(=O)c1ccc2c(c1)SC1=C(O)CCCC1=N2
IC50 (Fibrinogen beta chain [5]): 17.9 µM (inactive)
IC50 (Protein Rev): > 75.4 µM (not active)
IC50 (Fibrinogen beta chain [6]): > 83.3 µM (inactive)
IC50 [7]: 6.11 µM (active)

CC(=O)N/C(=C/c1ccc(OS(=O)(=O)c2ccc(C)cc2)cc1)C(=O)Nc1ccc(C(=O)O)cc1
AC50 (HeLa): 132 µM (active)

COc1ccc(Oc2c(Cl)cnn(Cc3ccc(C)cc3)c2=O)cc1
IC50 [8]: 6.3 µM (active)
